Tests used:
Experiment in all cases: NHL cell line viability/apoptosis 384-well flow cytometry assay
Assay type in all cases: cell-based
[1] = system: DOHH2; conditions: DOHH2 (FL), 120 hours
How it was run: (§1)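 120 h exposure, 0.00015–10 μM, 0.1% DMSO final. Readout: Annexin V/DRAQ7 flow cytometry. Viable = double negative, normalized to DMSO control; IC50/Emax/AUC from log(inhibitor) variable-slope fit. Apoptosis = Annexin V+ (early + late); EC50/Ymax/AUC from log(agonist) fit.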

[2] = system: NU-DHL-1; conditions: NU-DHL-1 (DLBCL), 120 hours
How it was run: as §1

[3] = system: OCI-LY19; conditions: OCI-LY19 (DLBCL), 120 hours
How it was run: as §1

[4] = system: OCI-LY1; conditions: OCI-LY1 (DLBCL), 120 hours
How it was run: as §1

[5] = system: Pfeiffer; conditions: Pfeiffer (DLBCL), 120 hours
How it was run: as §1

[6] = system: RC-K8; conditions: RC-K8 (DLBCL), 120 hours
How it was run: as §1

[7] = system: ROS-50; conditions: ROS-50 (DLBCL), 120 hours
How it was run: as §1

[8] = system: SU-DHL-16; conditions: SU-DHL-16 (DLBCL), 120 hours
How it was run: as §1

[9] = system: SU-DHL-1; conditions: SU-DHL-1 (DLBCL), 120 hours
How it was run: as §1

[10] = system: SU-DHL-2; conditions: SU-DHL-2 (DLBCL), 120 hours
How it was run: as §1

[11] = system: WILL-1; conditions: WILL-1 (DLBCL), 120 hours
How it was run: as §1

[12] = system: WSU-DLCL; conditions: WSU-DLCL (DLBCL), 120 hours
How it was run: as §1

[13] = Homo sapiens, read-out: IC50 (% Viable Cells)
[14] = read-out: IC50 (% Viable Cells)

O=C1CC[C@H](N2C(=O)c3cccc(NCc4ccc(CN5CC(N6CCOCC6)C5)cc4F)c3C2=O)C(=O)N1 [Compound 1, (S)-2-(2,6-dioxopiperidin-3-yl)-4-((2-fluoro-4-((3-morpholinoazetidin-1-yl)methyl)benzyl)amino)isoindoline-1,3-dione]
AUC (% Viable Cells) [1]: 6.902 | AUC (Apoptosis) [1]: 923.9 | Emax (% Viable Cells) [1]: 0.2066% | Ymax (Apoptosis) [1]: 95.1% | EC50 ([1]; Homo sapiens, DOHH-2): 17.5 nM | IC50 ([1]; Homo sapiens, DOHH-2, read-out: IC50 (% Viable Cells)): 2.8 nM | EC50 ([2]; Homo sapiens): 1.27 nM | IC50 [2, 13]: 1.07 nM | AUC (% Viable Cells) [2]: 12.37 | AUC (Apoptosis) [2]: 981.8 | Emax (% Viable Cells) [2]: 0.4919% | Ymax (Apoptosis) [2]: 99.17% | EC50 ([3]; Homo sapiens): 283 nM | IC50 [3, 13]: 29.4 nM | AUC (% Viable Cells) [3]: 72.49 | AUC (Apoptosis) [3]: 706.2 | Emax (% Viable Cells) [3]: 3.228% | Ymax (Apoptosis) [3]: 80.91% | EC50 ([4]; Homo sapiens): 33.4 nM | IC50 [4, 13]: 6 nM | AUC (% Viable Cells) [4]: 22.77 | AUC (Apoptosis) [4]: 852.3 | Emax (% Viable Cells) [4]: 1.037% | Ymax (Apoptosis) [4]: 90.09% | EC50 ([5]; Homo sapiens): 13.6 nM | IC50 [5, 13]: 47.7 nM | AUC (% Viable Cells) [5]: 313.5 | AUC (Apoptosis) [5]: 493.3 | Emax (% Viable Cells) [5]: 24.49% | Ymax (Apoptosis) [5]: 51.82% | EC50 ([6]; Homo sapiens, RCK8): 74.3 nM | IC50 ([6]; Homo sapiens, RCK8, read-out: IC50 (% Viable Cells)): 3.37 nM | AUC (% Viable Cells) [6]: 115.7 | AUC (Apoptosis) [6]: 349.2 | Emax (% Viable Cells) [6]: 10.06% | Ymax (Apoptosis) [6]: 26.31% | AUC (% Viable Cells) [7]: 762.1 | AUC (Apoptosis) [7]: 87.92 | EC50 [7]: 335 nM | Emax (% Viable Cells) [7]: 65.57% | Ymax (Apoptosis) [7]: 10.9% | IC50 [7, 14]: ≥ 10000 nM | EC50 ([8]; Homo sapiens): 662 nM | IC50 [8, 13]: 154 nM | AUC (% Viable Cells) [8]: 149.7 | AUC (Apoptosis) [8]: 492.6 | Emax (% Viable Cells) [8]: 7.137% | Ymax (Apoptosis) [8]: 60.79% | EC50 ([9]; Homo sapiens): 1.1 nM | IC50 [9, 13]: 0.549 nM | AUC (% Viable Cells) [9]: 31.14 | AUC (Apoptosis) [9]: 690.1 | Emax (% Viable Cells) [9]: 2.485% | Ymax (Apoptosis) [9]: 73.83% | EC50 ([10]; Homo sapiens): 6.24 nM | IC50 [10, 13]: 1.26 nM | AUC (% Viable Cells) [10]: 5.586 | AUC (Apoptosis) [10]: 928.4 | Emax (% Viable Cells) [10]: 0.2145% | Ymax (Apoptosis) [10]: 95.98% | AUC (% Viable Cells) [11]: 233.7 | AUC (Apoptosis) [11]: 549.4 | EC50 [11]: 2520 nM | Emax (% Viable Cells) [11]: 4.216% | Ymax (Apoptosis) [11]: 79.51% | IC50 [11, 14]: 817 nM | AUC (% Viable Cells) [12]: 341.9 | AUC (Apoptosis) [12]: 565.1 | EC50 [12]: 18 nM | Emax (% Viable Cells) [12]: 27.83% | Ymax (Apoptosis) [12]: 59.91% | IC50 [12, 14]: 142 nM
